Legend:
human EHMT1 982-1266 = biological target: T1, human EHMT1 982-1266 (Homo sapiens, UniProt Q9H9B1); assay: EHMT1 enzyme assay on histone peptide substrate (3H-SAM SPA); conditions: EHMT1 IC50, recombinant human EHMT1 982-1266, histone peptide substrate
T1 sequence (Q9H9B1 982-1266): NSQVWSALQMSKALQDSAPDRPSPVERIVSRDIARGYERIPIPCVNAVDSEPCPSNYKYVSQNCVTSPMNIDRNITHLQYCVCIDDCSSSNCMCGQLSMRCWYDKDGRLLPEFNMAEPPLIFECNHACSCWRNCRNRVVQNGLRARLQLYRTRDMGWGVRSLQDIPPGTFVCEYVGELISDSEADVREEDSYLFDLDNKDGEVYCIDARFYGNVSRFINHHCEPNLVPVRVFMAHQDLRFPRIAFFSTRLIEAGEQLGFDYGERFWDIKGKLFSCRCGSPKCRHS

human EHMT2 913-1193 = biological target: T2, human EHMT2 913-1193 (Homo sapiens, UniProt Q96KQ7); assay: EHMT2 enzyme assay on histone peptide substrate (3H-SAM SPA); conditions: EHMT2 IC50, recombinant human EHMT2 913-1193, histone peptide substrate
T2 sequence (Q96KQ7 913-1193): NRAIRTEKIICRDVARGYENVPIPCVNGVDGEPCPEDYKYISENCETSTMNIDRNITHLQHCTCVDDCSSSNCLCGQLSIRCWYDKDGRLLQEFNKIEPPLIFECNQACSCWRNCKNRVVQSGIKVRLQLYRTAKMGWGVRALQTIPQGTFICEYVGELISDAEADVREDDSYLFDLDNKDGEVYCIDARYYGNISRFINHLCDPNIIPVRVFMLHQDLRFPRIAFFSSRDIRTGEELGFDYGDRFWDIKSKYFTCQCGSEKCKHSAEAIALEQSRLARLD

H3K9me2 in HCT116 cells = assay: HCT116 H3K9me2 in-cell western assay; type: cell-based; conditions: Homo sapiens, HCT-116, 72 h, HCT116 cells, 72 hours incubation; read-out: H3K9me2 ICW IC50
Description: HCT116 cell line was purchased from ATCC (Manassas, VA, USA). […] Penicillin-Streptomycin and heat inactivated fetal bovine serum were purchased from Hyclone (Logan, UT, USA). DPBS, Corning^R were purchased from VWR (Radnor, PA, USA). Triton′ X-100 was purchased from Sigma (St. Louis, MO, USA). Intercept blocking buffer, DRAQ5, Licor Odyssey Infrared Scanner were purchased from Licor Biosciences (Lincoln, NB, USA). Plate washer was purchased from BioTek (Winooski, VT, USA). […] 16% Paraformaldehyde was purchased from Electron Microscopy Sciences (Hatfield, PA, USA). HCT116 cells were maintained in complete growth medium (RPMI supplemented with 10% heat inactivated fetal bovine serum, 1% Penicillin-Streptomycin) and cultured at 37° C. under 5% CO2. N^2-(4-methoxy-3-(3-(pyrrolidin-1-yl)propoxy)phenyl)-N^4,6-dimethyl]pyrimidine-2,4-diamine (synthesis disclosed in International Application WO2017181177A1) was used as a control compound.
HCT116 cells (ATCC) were trypsinized, counted and seeded in assay medium (RPMI supplemented with 10% heat inactivated fetal bovine serum, 1% Penicillin-Streptomycin) at a concentration of 2,000 cells per well to a 384-well cell culture plate with compounds in 50 μl per well. Plates were incubated with at 37° C. under 5% CO2 for 72 hours. After the incubation, 50 μl per well of 8% paraformaldehyde in PBS was added to the plates and incubated at room temperature for 20 minutes. Plates were transferred to a BioTek (EL406) plate washer and washed 5 times with 110 μl per well of wash buffer (1×PBS containing 0.1% Triton X-100). The plates were next blocked with 50 μl of Intercept blocking buffer for 1 hour at room temperature. Blocking buffer was removed and 30 μl per well of monoclonal primary antibody of H3K9me2 (CST) diluted 1:200 in Intercept blocking buffer were added and plates were incubated overnight at 4° C. The plates were then washed 5 times with 110 μl per well of wash buffer (1×PBS containing 0.1% Triton X-100). Next 30 μl per well of secondary was added (1:400 800 CW goat anti-rabbit IgG in blocking buffer) with 1:1000 DRAQ5 in blocking buffer and incubated for 2 hours at room temperature. The plates were washed 5 times with 110 μl per well of wash buffer (1×PBS containing 0.1% Triton X-100) then with 100 μl per well of water once. Plates were allowed to dry at room temperature then imaged on a Licor Odyssey Infrared Scanner which measured integrated intensity at 700 nm and 800 nm wavelength. Both 700 and 800 channels were scanned.
The average of the ratio values (800 nm/700 nm) for each well was calculated and used to determine the percentage for each test well in the plate. Compounds were serially diluted two-fold in 0.1% DMSO for a total of 10 test concentrations beginning at 10 μM. IC50 curves were generated using duplicate wells per concentration of compound. […] IC50 values were calculated using a non-linear regression of Prism.

IC50 (human EHMT1 982-1266)	IC50 (human EHMT2 913-1193)	IC50 (H3K9me2 in HCT116 cells)	SMILES
500 to 2000 nM	500 to 2000 nM	500 to 2000 nM	CNc1cc(C)nc(Nc2cc3c(c(N4CCCN(C)CC4)c2)OCC3)n1 [Compound 126, N4,6-dimethyl-N2-[7-(4-methyl-1,4-diazepan-1-yl)-2,3-dihydrobenzofuran-5-yl]pyrimidine-2,4-diamine]
100 to 500 nM	500 to 2000 nM	500 to 2000 nM	CNc1cc(C)nc(Nc2cc(OCCCN3CCCC3)c3c(c2)N(Cc2ccccc2)CCO3)n1 [Compound 127, N2-[4-benzyl-8-(3-pyrrolidin-1-ylpropoxy)-2,3-dihydro-1,4-benzoxazin-6-yl]-N4,6-dimethyl-pyrimidine-2,4-diamine]
500 to 2000 nM	> 2000 nM	500 to 2000 nM	CNc1cc(C)nc(Nc2cc3c(c(N4C[C@H]5CNC[C@H]5C4)c2)OCC3)n1 [Compound 128, N4,6-dimethyl-N2-[7-[rac-(3aS,6aR)-2,3,3a,4,6,6a-hexahydro-1H-pyrrolo[3,4-c]pyrrol-5-yl]-2,3-dihydrobenzofuran-5-yl]pyrimidine-2,4-diamine]
100 to 500 nM	> 2000 nM	500 to 2000 nM	CNc1cc(C)nc(Nc2cc3c(c(OCCCN4CCCC4)c2)OCCN3)n1 [Compound 136]
< 100 nM	100 to 500 nM	< 100 nM	CNc1cc(C)nc(Nc2cc3c(c(C4=CCN(C)CCC4)c2)OCO3)n1 [Compound 141, N4,6-dimethyl-N2-[7-(1-methyl-2,3,4,7-tetrahydroazepin-5-yl)-1,3-benzodioxol-5-yl]pyrimidine-2,4-diamine]
500 to 2000 nM	> 2000 nM	100 to 500 nM	CNc1cc(C)nc(Nc2cc3c(c(C4=CCN(CCOC)CCC4)c2)OCO3)n1 [Compound 145, N2-[7-[1-(2-methoxyethyl)-2,3,4,7-tetrahydroazepin-5-yl]-1,3-benzodioxol-5-yl]-N4,6-dimethyl-pyrimidine-2,4-diamine]
100 to 500 nM	500 to 2000 nM	100 to 500 nM	CNc1cc(C)nc(Nc2cc3c(c(C4=CCN(C)CCC4)c2)OCCO3)c1 [Compound 146, N4,6-dimethyl-N2-[5-(1-methyl-2,3,4,7-tetrahydroazepin-5-yl)-2,3-dihydro-1,4-benzodioxin-7-yl]pyridine-2,4-diamine]
500 to 2000 nM	> 2000 nM	500 to 2000 nM	CNc1cc(C)nc(Nc2cc(OCCCN3CCCC3)c3c(c2)OCO3)c1 [Compound 147, N4,6-dimethyl-N2-[7-(3-pyrrolidin-1-ylpropoxy)-1,3-benzodioxol-5-yl]pyridine-2,4-diamine]
500 to 2000 nM	> 2000 nM	500 to 2000 nM	CNc1cc(C)nc(Nc2cc3c(c(C4=CCC(N)CC4)c2)OCC3)n1 (stereo not drawn) [Compound 148, N2-[7-(4-aminocyclohexen-1-yl)-2,3-dihydrobenzofuran-5-yl]-N4,6-dimethyl-pyrimidine-2,4-diamine]
> 2000 nM	> 2000 nM	> 2000 nM	CNc1cc(C)nc(Nc2cc3c(c(C4CCNCC4)c2)OCC3)n1 [Compound 149, N4,6-dimethyl-N2-[7-(4-piperidyl)-2,3-dihydrobenzofuran-5-yl]pyrimidine-2,4-diamine]

Further lines, the molecule ahead of its results:

SMILES	IC50 (human EHMT1 982-1266)	IC50 (human EHMT2 913-1193)	IC50 (H3K9me2 in HCT116 cells)
CNc1cc(C)nc(Nc2cc3c(c(C4CCCNCC4)c2)OCC3)n1 (stereo not drawn) [Compound 106, N2-[7-(azepan-4-yl)-2,3-dihydrobenzofuran-5-yl]-N4,6-dimethyl-pyrimidine-2,4-diamine]	500 to 2000 nM	500 to 2000 nM	100 to 500 nM
CNc1cc(C)nc(Nc2cc3c(c(C4CCCN(C)CC4)c2)OCC3)n1 (stereo not drawn) [Compound 107, N4,6-dimethyl-N2-[7-(1-methylazepan-4-yl)-2,3-dihydrobenzofuran-5-yl]pyrimidine-2,4-diamine]	100 to 500 nM	500 to 2000 nM	100 to 500 nM
CNc1nc(Nc2cc3c(c(OCCCN4CCCC4)c2)OCC3)nc(C)c1F [Compound 108, 5-fluoro-N4,6-dimethyl-N2-[7-(3-pyrrolidin-1-ylpropoxy)-2,3-dihydrobenzofuran-5-yl]pyrimidine-2,4-diamine]	> 2000 nM	> 2000 nM	> 2000 nM
CNc1nc(Nc2cc(OCCCN3CCCC3)c3occc3c2)nc(C)c1F [Compound 109, 5-fluoro-N4,6-dimethyl-N2-[7-(3-pyrrolidin-1-ylpropoxy)benzofuran-5-yl]pyrimidine-2,4-diamine]	> 2000 nM	> 2000 nM	> 2000 nM
CNc1cc(C)nc(Nc2cc3c(c(OCCN4CCCC4)c2)OCC3)n1 [Compound 112, N4,6-dimethyl-N2-[7-(2-pyrrolidin-1-ylethoxy)-2,3-dihydrobenzofuran-5-yl]pyrimidine-2,4-diamine]	100 to 500 nM	> 2000 nM	500 to 2000 nM
CNc1cc(C)nc(Nc2cc3c(c(OCCCN4CCCC4)c2)OCC(=O)N3)n1 [Compound 114]	> 2000 nM	> 2000 nM	> 2000 nM
Cc1cc(N)nc(Nc2cc3c(c(OCCCN4CCCC4)c2)OCC3)n1 [Compound 115, 6-methyl-N2-[7-(3-pyrrolidin-1-ylpropoxy)-2,3-dihydrobenzofuran-5-yl]pyrimidine-2,4-diamine]	> 2000 nM	> 2000 nM	500 to 2000 nM
Cc1cc(NC2CCCC2)nc(Nc2cc3c(c(OCCCN4CCCC4)c2)OCC3)n1 [Compound 116, N4-cyclopentyl-6-methyl-N2-[7-(3-pyrrolidin-1-ylpropoxy)-2,3-dihydrobenzofuran-5-yl]pyrimidine-2,4-diamine]	500 to 2000 nM	> 2000 nM	> 2000 nM
Cc1cc(NC2CCCCC2)nc(Nc2cc3c(c(OCCCN4CCCC4)c2)OCC3)n1 [Compound 117, N4-cyclohexyl-6-methyl-N2-[7-(3-pyrrolidin-1-ylpropoxy)-2,3-dihydrobenzofuran-5-yl]pyrimidine-2,4-diamine]	500 to 2000 nM	> 2000 nM	> 2000 nM
Cc1cc(NC2CCC2)nc(Nc2cc3c(c(OCCCN4CCCC4)c2)OCC3)n1 [Compound 119, N4-cyclobutyl-6-methyl-N2-[7-(3-pyrrolidin-1-ylpropoxy)-2,3-dihydrobenzofuran-5-yl]pyrimidine-2,4-diamine]	500 to 2000 nM	> 2000 nM	500 to 2000 nM
CNc1cc(C)nc(Nc2cc(OCCCN3CCCC3)c3oc(=O)[nH]c3c2)n1 [Compound 124, 5-[[4-methyl-6-(methylamino)pyrimidin-2-yl]amino]-7-(3-pyrrolidin-1-ylpropoxy)-3H-1,3-benzoxazol-2-one]	100 to 500 nM	> 2000 nM	> 2000 nM
CNc1cc(C)nc(Nc2cc3c(c(N4CCCNCC4)c2)OCC3)n1 [Compound 125, N2-[7-(1,4-diazepan-1-yl)-2,3-dihydrobenzofuran-5-yl]-N4,6-dimethyl-pyrimidine-2,4-diamine]	500 to 2000 nM	500 to 2000 nM	500 to 2000 nM
CNc1cc(C)nc(Nc2cc3c(c(N4CCNCC4)c2)OCC3)n1 [Compound 152]	> 2000 nM	> 2000 nM	> 2000 nM

— patent US20240368139A1, “NOVEL MODULATORS OF EHMT1 AND EHMT2 AND THERAPEUTIC USE THEREOF” (Tango Therapeutics, Inc., priority 2021, published 2024)
